Results taken from patent US20230067015A1, “SYSTEMS AND METHODS FOR ANTIBACTERIAL SUSCEPTIBILITY TESTING USING DYNAMIC LASER SPECKLE IMAGING” (The Penn State Research Foundation, priority 2020, published 2023).
Values after ≈ are worked out from the molar mass of the structure shown. Like-named read-outs stand apart in the source and are kept apart here.

Experiments:
E. coli K-12 [1] = assay: Broth microdilution MIC (CLSI), confirmed by time-kill kinetics; assay type: cell-based, Escherichia coli; settings: E. coli K-12, gold standard overnight methods
Description: (§1) Escherichia coli (E. coli) strain K-12 was used as a model bacterial strain in all experiments with ampicillin, gentamicin, and ceftriaxone. Multi-drug resistant (MDR) E. coli strain PS00278A (porcine isolate) was tested with ampicillin and gentamicin to contrast with the susceptible model bacterial strain. Staphylococcus aureus (S. aureus) strain PS00975A (human clinical isolate) was used with ampicillin to evaluate the methods' performance on a Gram-positive microorganism. Cultures were stored as a frozen stocks at −80° C. and resuscitated every 14 days to maintain a fresh inoculum. The culture was resuscitated by streaking onto Muller Hinton Agar (MHA) and was then incubated at 37° C. 20+/−2 h. A single colony from the MHA agar was re-streaked on a fresh MHA plate and incubated at 37° C. 20+/−2 h. A single colony from the MHA sub-streak plate was inoculated into 10 mL Muller Hinton Broth (MHB) and incubated at 37° C., shaking at 210 rpm, for 20+/−2 h. The overnight culture was diluted in MHB based on the OD600 to obtain 5×10^5 CFU/mL using a BioPhotometer D30 (Eppendorf, Hauppauge, N.Y.). An OD600 of 1 was considered to be equal to 8×10^8 CFU/mL, based on an E. coli OD600-CFU/ml standard curve.
(§2) The 5×10^5 CFU/mL culture was used for broth microdilution and speckle imaging. […] The CLSI guideline M100 ED30:2020 was used to define clinical resistance based on determined MICs. […] MIC was determined by visually inspecting wells for turbidity resulting from culture growth.
Broth macrodilution was used to determine the time-kill kinetics of all strains, Culture in concentration of 5×10^5 CFU/mL was first grown for 1 hour at 37° C. in a shaking condition (210 rpm) and was then exposed to antibiotic concentrations of 0×MIC (control), 1×MIC, and 2×MIC that were previously determined via broth microdilution. Viable cells were quantified at times 0, 1, 2, 3, 5, 8, 16, and 24 hours by spiral plating (easySpiral, Interscience) 10-fold dilutions onto MHB agar. Inoculated plates were incubated at 37° C. for 16-20 hours and counted to determine the CFU/mL at each time point. […]

MDR E. coli PS00278A [2] = assay: Broth microdilution MIC (CLSI); assay type: cell-based, Escherichia coli
Description: as §1, with “An OD600 of 1 was considered to be equal to 8×10^8 CFU/mL, based on an E. coli OD600-CFU/ml standard curve.” left out
as §2

MDR E. coli PS00278A [3] = settings: CLSI guideline M100 ED30:2020, tested on MDR E. coli; cited from earlier work
E. coli K-12 [4] = assay: Average intensity of raw dynamic laser speckle images; assay type: cell-based; settings: Escherichia coli, K12; E. coli K-12, simple intensity measurement (false positive vs overnight MIC); read-out: MIC determined from speckle intensity data
Description: A helium-neon laser (wavelength: 632.8 nm, power: 0.8 mW, HNLS008L, Thorlabs Inc., USA) was used as an illumination source. The laser beam was slightly expanded by using a concave lens (focal length=−25.0 mm) before illuminating a cuvette (Fisherbrand, CAS#14-955-129) containing 3 mL of bacterial suspension. The resultant speckle pattern was captured by a CMOS camera (Zyla, ANDOR), interfaced to a computer. Note that other methods, such as an inverse telescope beam expander, can also be used to increase the incident laser beam size. Our choice of a diverging lens is due to its simplicity and compactness as well as the fact that an explicit physical model is not needed for the machine learning based analysis, which relaxes the requirement of a plane-wave incident beam as commonly used in dynamic light scattering. […]
The OD data and the average intensity values obtained from raw speckle patterns (examples shown in FIG. 2) are shown in FIG. 3A-B and FIG. 3C-D for ampicillin and gentamicin, respectively. […] While the OD values for different antibiotic concentrations are below the detection limit of the OD reading even after 120 min, the average speckle intensity values are distinguishable in 90 min. […]

E. coli K-12 [5] = assay: DyRAST: ANN pixel-level prediction on DLSI data with voting; assay type: cell-based, Escherichia coli; settings: 2×MIC
Description: For DLSI-based AST, the culture grown as outlined above was adjusted to 5×10^5 CFU/mL and was further incubated at 37° C., 210 rpm for 1 h to reach the logarithmic growth phase before an antibiotic was added to the culture in concentrations equal to 0×MIC (control), 0.5×MIC, 1×MIC, and 2×MIC. Three mL of each culture were collected at each time point, ti (i=0, 1, . . . , 4) at 0, 30 min, 60 min, 90 min, and 120 min, respectively, and transferred into the cuvette used for DLSI in the imaging system described above. At each ti, a dynamic speckle patterns series (16 bits, 1000×2000 pixels, 50 frames per second) was collected. The exposure time for each frame was 1 msec (millisecond) and the full capture period was 10 sec at each time point, ti. All experiments were conducted in independent triplicates.
The raw images (1000×2000) were first resized (100×200) using the nearest neighbor method to reduce the computational cost. The camera has a pixel size of 6.5 μm, corresponding to a 6.5 mm×13 mm detection area. Fourier Transform (FT) was performed along the time axis of the measured data cube. […]
The experimental replicates are pooled, processed together, and then divided randomly into training, validation, and test groups. […] Binary classification for the “Inhibited” and “Non-Inhibited” bacteria groups was determined with the input from frequency domain for each pixel. […]

[6] = Escherichia coli, K12, read-out: MIC

Row | Compound | MIC (E. coli K-12 [1]) [µg/mL] | MIC (MDR E. coli PS00278A [2]) [µg/mL] | intermediate breakpoint concentration (clinical resistance diagnosis breakpoint) (MDR E. coli PS00278A [3]) [µg/mL] | MIC (E. coli K-12 [1]; [6]) [µg/mL] | MIC (MDR E. coli PS00278A [2]; Escherichia coli, read-out: MIC) [µg/mL] | MIC (E. coli K-12 [4]) [µg/mL] | predicted percentage of classification as "Inhibited" (E. coli K-12 [5]; 30 min) [%] | predicted percentage of classification as "Inhibited" (votes) (E. coli K-12 [5]; 60 min)
1 | gentamicin | 2 | 128 | 8 |  |  |  |  | 
2 | CC1(C)S[C@@H]2[C@H](NC(=O)[C@H](N)c3ccccc3)C(=O)N2[C@H]1C(=O)O [ampicillin, Ampicillin] |  |  | 16 | 4 (≈ 11.4 µM) | 2000 (≈ 5720 µM) | 2 (≈ 5.72 µM) | ~50 | more than 80%
3 | CO/N=C(\C(=O)N[C@@H]1C(=O)N2C(C(=O)O)=C(CSc3nc(=O)c(=O)[nH]n3C)CS[C@H]12)c1csc(N)n1 [ceftriaxone] |  |  |  | 0.0625 (≈ 0.113 µM) |  |  |  | 
